Reference: PMC12098374, “Case report: Treatment of severe phorate poisoning” (Frontiers in Toxicology, 2025)

Legend:
[1] = Serum levels of phorate, its metabolites and PAM in the poisoned patient (LC-MS); format: in vivo, human; details: for concentration at 1 day / concentration at 4 h / concentration at 3 day / concentration at 5 day / concentration at 7 day / concentration at 10 day / concentration at 12 day / concentration at 14 day / concentration at 16 day / concentration at 18 day: human, in vivo; for change of serum level while HP was stopped: seventh-10th day, family rejected HP
Description: LC-MS was used to detect atropine,PAM,phorate and its metabolites. Ultra-high-pressure liquid chromatography-tandem mass spectrometry on a Sciex Triple TOFTM 5600+ mass spectrometer was used for toxic metabolites terminology screening. Ultra-high-pressure liquid chromatography-tandem mass spectrometry on a Sciextriplequad5500 mass spectrometer was used to detect target analytes quantitatively. Liquid chromatographic separations were performed with a Kinetex C18 column (2.1*50 mm,2.6 μm) from Phenomenex (Torrance, California, United States).Data were processed using the Xcalibur software (version2.0.7) from ThermoFisher.

[2] = target: cholinesterase; details: ref Kovarova et al., 2013, cited from earlier work; for IC50: read-out: cholinesterase inhibition IC50; for times more toxic than phorate: relative to phorate, from IC50
[3] = target: T1, cholinesterase (Homo sapiens, UniProt P06276); assay: Serum cholinesterase level of the patient during phorate poisoning; format: in vivo; details: for serum cholinesterase activity: patient
T1 construct: from tissue; host or cells: serum of the patient
Description: Cholinesterase levels were measured using petrochemistry products, Ortho Medical Equipment Trade (China) Co., Ltd. slides, and the Medical Device of the PRC Registration Certificate NO.: 20212402803. Dry tablets (rate method) and compound calibrator for cholinesterase were determined by cholinesterase on a vitros5600 automatic biochemical immunoanalyzer (VITROS Chemistry Products, Calibrator kit 6). The reportable range of measurement was 200–12,500 U/L.

[4] = tested on: AChE; set-up: method as in Moyer et al., 2018b; details: within 48 h; ref Moyer et al., 2018b; cited from earlier work
[5] = 24 h after ingestion; cited from earlier work
[6] = liposolubility; cited from earlier work
[7] = patient, day 1, before HP, about 4 h after ingestion of 60% phorate emulsion

T1 sequence (P06276 29-602): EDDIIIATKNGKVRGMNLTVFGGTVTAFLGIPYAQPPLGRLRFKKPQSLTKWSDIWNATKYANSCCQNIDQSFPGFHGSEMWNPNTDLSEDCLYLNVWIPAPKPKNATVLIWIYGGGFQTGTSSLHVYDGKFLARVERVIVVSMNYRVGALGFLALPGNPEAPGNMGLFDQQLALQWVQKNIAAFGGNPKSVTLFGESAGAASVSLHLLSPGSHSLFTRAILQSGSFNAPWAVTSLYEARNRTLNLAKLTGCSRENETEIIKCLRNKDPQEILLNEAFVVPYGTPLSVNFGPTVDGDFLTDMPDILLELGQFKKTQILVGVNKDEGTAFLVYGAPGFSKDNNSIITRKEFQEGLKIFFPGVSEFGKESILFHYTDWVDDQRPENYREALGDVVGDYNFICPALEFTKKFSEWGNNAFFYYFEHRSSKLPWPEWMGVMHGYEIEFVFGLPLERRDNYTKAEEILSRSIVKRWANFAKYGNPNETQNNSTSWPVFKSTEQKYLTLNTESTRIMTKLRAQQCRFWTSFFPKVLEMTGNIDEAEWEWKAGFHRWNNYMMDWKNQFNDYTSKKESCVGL

C[n+]1ccccc1/C=N/O [PAM, pralidoxime chloride, reference compound]
concentration of PAM ([1]; sixth day, after 0.5 g per hour for 5 days): significantly increased

CCOP(=S)(OCC)SCS(=O)(=O)CC [phorate sulfone]
concentration at 1 day ([1]; patient, day 1, after HP): 1310 ng/mL
concentration at 4 h [1, 7]: 1920 ng/mL
concentration at 3 day ([1]; patient, day 3): 191 ng/mL
concentration at 5 day ([1]; patient, day 5): 68.9 ng/mL
concentration at 7 day ([1]; patient, day 7 (HP suspended)): 30.7 ng/mL
concentration at 10 day ([1]; patient, day 10 (HP suspended)): 31 ng/mL
concentration at 12 day ([1]; patient, day 12): 14.8 ng/mL
concentration at 14 day ([1]; patient, day 14): 18.2 ng/mL
concentration at 16 day ([1]; patient, day 16): 10.8 ng/mL
concentration at 18 day ([1]; patient, day 18): 2.71 ng/mL
change of serum level while HP was stopped [1]: slight rise
IC50 [2]: 40 µM
times more toxic than phorate [2]: about 80 times

CCOP(=S)(OCC)SC[S+]([O-])CC (stereo not shown) [phorate sulfoxide]
concentration at 1 day ([1]; patient, day 1, after HP): 1020 ng/mL
concentration at 4 h [1, 7]: 1440 ng/mL
concentration at 3 day ([1]; patient, day 3): 21.2 ng/mL
concentration at 5 day ([1]; patient, day 5): 10.9 ng/mL
concentration at 7 day ([1]; patient, day 7 (HP suspended)): 35.2 ng/mL
concentration at 10 day ([1]; patient, day 10 (HP suspended)): 80.2 ng/mL
concentration at 12 day ([1]; patient, day 12): 18.1 ng/mL
concentration at 14 day ([1]; patient, day 14): 17.6 ng/mL
concentration at 16 day ([1]; patient, day 16): 1.67 ng/mL
concentration at 18 day ([1]; patient, day 18): 0 ng/mL
change of serum level while HP was stopped [1]: significant rise
IC50 [2]: 1500 µM

CCOP(=S)(OCC)SCSCC [phorate, phosphorodithioic acid O, O-diethyl S-[(ethylthio)methyl] ester]
phorate in blood ([1]; after the first HP treatment and subsequent daily HP treatments): not detected
unmetabolized phorate in first blood analysis ([1]; before HP, about 4 h after ingestion): did not detect
levels in the serum ([1]; patient, 34th day): < 10 ng/mL
cholinesterase levels ([3]; 23rd day): 1,634 U/L
cholinesterase levels ([3]; 27th day): 3592 U/L
cholinesterase levels ([3]; 34th day): 4,821 U/L
serum cholinesterase, share of the normal value ([3]; after 30 days): about 50%
serum cholinesterase activity ([3]; day 1): 268 u/L
serum cholinesterase activity ([3]; day 3): 200 u/L
serum cholinesterase activity ([3]; day 7): 200 u/L
serum cholinesterase activity ([3]; day 14): 233 u/L
serum cholinesterase activity ([3]; day 28): 3621 u/L
serum cholinesterase ([3]; upon transfer into ICU, after first blood perfusion): 268 U/L
IC50 [2]: 3100 µM
aging of AChE inhibited by phorate [4]: no significant aging
unmetabolized phorate in blood [5]: no longer detectable
logP [6]: 3.71

CCOP(=O)(OCC)SCS(=O)(=O)CC [phoratoxon sulfone]
concentration at 1 day ([1]; patient, day 1, after HP): 2110 ng/mL
concentration at 4 h [1, 7]: 3240 ng/mL
concentration at 3 day ([1]; patient, day 3): 221 ng/mL
concentration at 5 day ([1]; patient, day 5): 114 ng/mL
concentration at 7 day ([1]; patient, day 7 (HP suspended)): 65.2 ng/mL
concentration at 10 day ([1]; patient, day 10 (HP suspended)): 44.9 ng/mL
concentration at 12 day ([1]; patient, day 12): 33.3 ng/mL
concentration at 14 day ([1]; patient, day 14): 29.4 ng/mL
concentration at 16 day ([1]; patient, day 16): 20.9 ng/mL
concentration at 18 day ([1]; patient, day 18): 20.3 ng/mL
change of serum level while HP was stopped [1]: gradually fell
IC50 [2]: 0.5 µM
times more toxic than phorate [2]: 1000 times

CCOP(=O)(OCC)SC[S+]([O-])CC (stereo not shown) [phoratoxon sulfoxide]
serum concentration ([1]; patient, day 1, after HP): 2180 ng/mL
serum concentration [1, 7]: 4170 ng/mL
serum concentration ([1]; patient, day 3): 696 ng/mL
serum concentration ([1]; patient, day 5): 304 ng/mL
serum concentration ([1]; patient, day 7 (HP suspended)): 219 ng/mL
serum concentration ([1]; patient, day 10 (HP suspended)): 177 ng/mL
serum concentration ([1]; patient, day 12): 96.2 ng/mL
serum concentration ([1]; patient, day 14): 72.3 ng/mL
serum concentration ([1]; patient, day 16): 14.5 ng/mL
serum concentration ([1]; patient, day 18): 0.743 ng/mL
change of serum level while HP was stopped [1]: gradually fell
IC50 [2]: 0.9 µM
times more toxic than phorate [2]: 1000 times

CCOP(=O)(OCC)SCSCC [phoratoxon]
serum concentration ([1]; patient, day 1, after HP): 161 ng/mL
serum concentration [1, 7]: 195 ng/mL
serum concentration ([1]; patient, day 3): 27.7 ng/mL
serum concentration ([1]; patient, day 5): 3.33 ng/mL
serum concentration ([1]; patient, day 7 (HP suspended)): 2.10 ng/mL
serum concentration ([1]; patient, day 10 (HP suspended)): 1.01 ng/mL
serum concentration ([1]; patient, day 12): 0.433 ng/mL
serum concentration ([1]; patient, day 14): 0.415 ng/mL
serum concentration ([1]; patient, day 16): 0 ng/mL
serum concentration ([1]; patient, day 18): 0 ng/mL
change of serum level while HP was stopped [1]: gradually fell
IC50 [2]: 3 µM
times more toxic than phorate [2]: 1000 times
